Laboratory results: patent US20240059691A1 (KALVISTA PHARMACEUTICALS LIMITED, priority 2020, published 2024)

Key:
Plasma Kallikrein = Plasma Kallikrein (Homo sapiens (Human), UniProt P03952); test: Determination of related protease inhibition: Plasma Kallikrein (fluorogenic substrate at Km); format: biochemical; conditions: 25° C., read-out: IC50 (human PKal)
Procedure, shortened: (§1)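 Human enzymes incubated with varied inhibitor concentrations and fluorogenic substrate at Km. Fluorescence release followed over 5 min at 25 °C; linear rate expressed as % activity, IC50 as inhibitor concentration giving 50% inhibition of uninhibited enzyme.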

Human Factor XIIa = Human Factor XIIa (Homo sapiens (Human), UniProt P00748); test: Determination of FXIIa inhibition (fluorogenic substrate H-DPro-Phe-Arg-AFC, IC50 assay); format: biochemical; conditions: substrate H-DPro-Phe-Arg-AFC at Km, 25° C.; class scale A-G
Procedure, shortened: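 Human FXIIa incubated at 25° C with fluorogenic substrate H-DPro-Phe-Arg-AFC at its Km concentration and varying compound concentrations. Fluorescence release monitored over 5 min at 25° C; linear rate expressed as % of uninhibited activity to derive IC50.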

[1] = Pharmacokinetics following a single intravenous dose and a single oral dose in male Sprague-Dawley rats (oral bioavailability, half-life); format: in vivo; conditions: rat, plasma, 10% DMSO/10% Cremophor EL/80% SWFI; for bioavailability: read-out: F % (oral bioavailability)
Procedure: Pharmacokinetic studies of the compounds in Table 16 were performed to assess the pharmacokinetics following a single intravenous dose and a single oral dose in male Sprague-Dawley rats. Two rats were given a single intravenous dose of 1 mL/kg of a nominal 1 mg/mL (1 mg/kg) composition of test compound in 10% DMSO/10% Cremophor EL/80% SWFI vehicle. Example 2191 was dosed at 1 mL/kg of a nominal 2 mg/mL (2 mg/kg) using the same vehicle.
Two rats were given a single oral dose of 5 mL/kg of a nominal 1 mg/mL (5 mg/kg) composition of test compound in 10% DMSO/10% Cremophor EL/80% SWFI vehicle. Example 2191 was dosed at 5 mL/kg of a nominal 2 mg/mL (10 mg/kg) using the same vehicle.
Following intravenous dosing, blood samples were collected over a period of 12 h. Sample times were 2, 5, 15 and 30 min then 1, 2, 4, 6, and 12 h. Following oral dosing, blood samples were collected over a period of 24 h. Sample times were 5, 15 and 30 min then 1, 2, 4, 6, 8, 12 and 24 h.
Following collection, blood samples were centrifuged and the plasma fraction analysed for concentration of test compound by LCMS. Oral bioavailability and half-life calculations from these studies were obtained using Phoenix WinNonlin (v8.0) and are shown below: […]

FXIa = FXIa (Homo sapiens (Human), UniProt P03951); test: Determination of related protease inhibition: FXIa (fixed substrate concentration of 100 μM); format: biochemical; conditions: 25° C.
Trypsin = test: Determination of related protease inhibition: Trypsin (fluorogenic substrate at Km); format: biochemical, human; conditions: 25° C.
Procedure: (§2) Determination of Related Protease Inhibition
(§3) In vitro inhibition of related proteases was determined using an ([…] assay based on standard literature methods (see e.g. Shori et al., Biochem. Pharmacol., 1992, 43, 1209; Bouckaert et al., European Journal of Medicinal Chemistry 110 (2016) 181). Human serine protease enzymes Plasma Kallikrein, KLK1, FXa, Plasmin, Thrombin and Trypsin were assayed for enzymatic activity using an appropriate fluorogenic substrate at Km concentration, FXIa at fixed substrate concentration of 100 μM, and various concentrations of the test compound. Protease activity was measured by monitoring the accumulation of liberated fluorescence from the substrate over […]. The linear rate of fluorescence increase per minute was expressed as percentage (%) activity. IC50 values were calculated as the concentration of inhibitor giving 50% inhibition of the uninhibited enzyme activity (100%).

Plasmin = Plasmin (Homo sapiens (Human), UniProt P00747); test: Determination of related protease inhibition: Plasmin (fluorogenic substrate at Km); format: biochemical; conditions: 25° C.
Procedure: as §2, §3

Thrombin = Thrombin (Homo sapiens (Human), UniProt P00734); test: Determination of related protease inhibition: Thrombin (fluorogenic substrate at Km); format: biochemical; conditions: 25° C.
Procedure, shortened: as §1

KLK1 = KLK1 (Homo sapiens (Human), UniProt P06870); test: Determination of related protease inhibition: KLK1 (fluorogenic substrate at Km); format: biochemical; conditions: 25° C.
Procedure, shortened: as §1

FXa = FXa (Homo sapiens (Human), UniProt P00742); test: Determination of related protease inhibition: FXa (fluorogenic substrate at Km); format: biochemical; conditions: 25° C.
Procedure, shortened: as §1

Sequence of FXIa (P03951 388-625): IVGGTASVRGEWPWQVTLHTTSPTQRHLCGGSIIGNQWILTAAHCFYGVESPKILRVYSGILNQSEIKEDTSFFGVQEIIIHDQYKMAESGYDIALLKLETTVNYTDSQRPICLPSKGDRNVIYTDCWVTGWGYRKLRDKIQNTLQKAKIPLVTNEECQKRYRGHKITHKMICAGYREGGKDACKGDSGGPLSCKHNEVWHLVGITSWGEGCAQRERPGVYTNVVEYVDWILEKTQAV
Sequence of FXIa (P03951 19-387 partner): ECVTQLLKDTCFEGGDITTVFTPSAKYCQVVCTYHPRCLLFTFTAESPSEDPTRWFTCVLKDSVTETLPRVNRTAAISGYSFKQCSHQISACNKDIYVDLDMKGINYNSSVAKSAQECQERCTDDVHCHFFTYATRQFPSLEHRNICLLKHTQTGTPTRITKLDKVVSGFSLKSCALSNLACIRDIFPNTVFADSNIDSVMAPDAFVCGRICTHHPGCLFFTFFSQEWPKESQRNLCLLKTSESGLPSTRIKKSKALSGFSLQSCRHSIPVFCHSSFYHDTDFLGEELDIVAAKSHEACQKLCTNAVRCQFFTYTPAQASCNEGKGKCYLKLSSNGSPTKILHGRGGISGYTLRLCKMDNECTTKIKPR
Sequence of KLK1 (P06870 25-262): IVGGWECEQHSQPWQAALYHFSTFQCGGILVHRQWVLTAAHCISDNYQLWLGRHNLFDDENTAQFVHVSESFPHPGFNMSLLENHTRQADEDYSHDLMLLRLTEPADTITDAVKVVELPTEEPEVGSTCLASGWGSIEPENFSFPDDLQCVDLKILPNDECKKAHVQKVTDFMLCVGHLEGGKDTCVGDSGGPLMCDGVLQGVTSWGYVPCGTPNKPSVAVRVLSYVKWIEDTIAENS
Sequence of Human Factor XIIa (P00748 373-615): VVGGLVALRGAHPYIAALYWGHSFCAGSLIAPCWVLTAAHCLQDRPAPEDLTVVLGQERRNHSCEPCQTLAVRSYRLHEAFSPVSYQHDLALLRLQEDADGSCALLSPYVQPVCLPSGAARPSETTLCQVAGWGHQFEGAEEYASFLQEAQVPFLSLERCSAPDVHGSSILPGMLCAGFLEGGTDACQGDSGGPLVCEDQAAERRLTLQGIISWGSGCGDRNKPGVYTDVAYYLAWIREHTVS
Sequence of Plasmin (P00747 581-810): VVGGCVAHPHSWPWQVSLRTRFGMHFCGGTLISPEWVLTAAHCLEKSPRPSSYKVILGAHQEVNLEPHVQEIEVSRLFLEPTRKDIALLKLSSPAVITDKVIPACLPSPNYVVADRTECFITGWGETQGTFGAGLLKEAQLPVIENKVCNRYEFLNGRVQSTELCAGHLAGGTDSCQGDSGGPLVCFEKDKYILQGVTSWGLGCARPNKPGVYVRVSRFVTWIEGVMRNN
Sequence of Plasmin (P00747 97-580 partner): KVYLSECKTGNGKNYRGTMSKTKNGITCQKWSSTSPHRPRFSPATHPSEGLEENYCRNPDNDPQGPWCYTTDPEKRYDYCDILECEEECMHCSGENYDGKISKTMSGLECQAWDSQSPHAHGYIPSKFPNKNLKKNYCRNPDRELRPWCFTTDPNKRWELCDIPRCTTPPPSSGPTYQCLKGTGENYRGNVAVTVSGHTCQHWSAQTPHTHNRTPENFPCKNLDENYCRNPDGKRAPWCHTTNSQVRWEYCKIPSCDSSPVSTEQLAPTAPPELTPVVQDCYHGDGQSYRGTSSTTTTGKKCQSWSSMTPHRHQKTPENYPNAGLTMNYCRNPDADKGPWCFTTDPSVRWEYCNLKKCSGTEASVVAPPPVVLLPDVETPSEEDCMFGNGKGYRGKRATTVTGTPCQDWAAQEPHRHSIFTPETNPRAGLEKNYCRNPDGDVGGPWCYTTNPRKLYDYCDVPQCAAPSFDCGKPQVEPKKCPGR
Sequence of Plasma Kallikrein (P03952 391-638): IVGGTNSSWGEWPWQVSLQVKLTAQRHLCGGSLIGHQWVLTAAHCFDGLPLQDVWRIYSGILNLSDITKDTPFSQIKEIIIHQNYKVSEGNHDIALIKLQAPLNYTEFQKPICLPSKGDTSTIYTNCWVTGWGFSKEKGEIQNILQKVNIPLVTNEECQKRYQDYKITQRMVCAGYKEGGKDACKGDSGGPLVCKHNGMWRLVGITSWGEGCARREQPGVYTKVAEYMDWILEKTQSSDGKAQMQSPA
Sequence of Plasma Kallikrein (P03952 20-390 partner): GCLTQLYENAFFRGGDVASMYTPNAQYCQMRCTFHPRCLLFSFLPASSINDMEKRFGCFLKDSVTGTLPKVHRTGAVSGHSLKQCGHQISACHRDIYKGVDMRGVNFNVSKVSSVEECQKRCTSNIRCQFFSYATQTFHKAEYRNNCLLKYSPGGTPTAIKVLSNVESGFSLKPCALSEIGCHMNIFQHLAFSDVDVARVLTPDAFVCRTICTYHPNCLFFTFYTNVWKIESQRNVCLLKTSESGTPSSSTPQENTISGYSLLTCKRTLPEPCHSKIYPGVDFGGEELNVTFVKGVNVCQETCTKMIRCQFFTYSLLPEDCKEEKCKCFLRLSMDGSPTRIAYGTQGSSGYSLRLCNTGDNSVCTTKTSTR
Sequence of FXa (P00742 235-488): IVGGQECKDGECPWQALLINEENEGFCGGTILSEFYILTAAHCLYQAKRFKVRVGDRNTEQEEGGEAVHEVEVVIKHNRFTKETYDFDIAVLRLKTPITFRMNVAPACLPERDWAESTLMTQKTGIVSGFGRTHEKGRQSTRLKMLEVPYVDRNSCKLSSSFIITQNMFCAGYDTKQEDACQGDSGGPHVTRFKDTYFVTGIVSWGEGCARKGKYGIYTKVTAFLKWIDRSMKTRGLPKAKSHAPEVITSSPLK
Sequence of FXa (P00742 41-179 partner): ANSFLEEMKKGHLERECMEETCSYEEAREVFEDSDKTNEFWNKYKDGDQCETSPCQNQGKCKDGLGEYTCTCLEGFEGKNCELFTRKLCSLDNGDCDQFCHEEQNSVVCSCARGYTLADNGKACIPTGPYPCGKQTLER

SMILES	IC50 (Plasma Kallikrein) [µM]	IC50 (Human Factor XIIa) [µM]	half-life [1] [h]	bioavailability [1] [%]	IC50 (FXIa) [µM]	IC50 (Trypsin) [µM]	IC50 (Plasmin) [µM]	IC50 (Thrombin) [µM]	IC50 (KLK1) [µM]	IC50 (FXa) [µM]
CC(C)N1C[C@@H]2C[C@H]1CN2CCc1ccc(CNc2cccc3c(N)nccc23)c(F)c1 (stereo in doubt) [Example 2212, N5-[[2-fluoro-4-[2-[(1S,4S)-5-isopropyl-2,5-diazabicyclo[2.2.1]heptan-2-yl]ethyl]phenyl]methyl]isoquinoline-1,5-diamine]	3 to 10	0.1 to 0.3	4.34	6.8	> 40	> 40	> 40	> 40	10 to 40	> 40
Nc1ncc(Cl)c2cc(NCc3ccnc(N4CCn5ccnc5C4)c3)ccc12 [Example 4437, 4-chloro-6-N-[(2-{5H,6H,8H-imidazo[1,2-a]pyrazin-7-yl}pyridin-4-yl)methyl]isoquinoline-1,6-diamine]	> 40	0.1 to 0.3			> 40	> 40	> 40	10 to 40	3 to 10	3 to 10
CN1CCC(COc2cc(CNc3ccc4c(N)ncc(Cl)c4c3)ccn2)CC1 [Example 4268, 4-Chloro-N6-((2-((1-methylpiperidin-4-yl)methoxy)pyridin-4-yl)methyl)isoquinoline-1,6-diamine]	10 to 40	0.01 to 0.1	12.4	3	> 40	> 40	> 40	> 40	1 to 3	3 to 10
Nc1ncc(F)c2c(NCc3ccnc(OCC4CCn5ccnc5C4)c3)cccc12 (stereo not drawn) [Example 4308, 4-fluoro-5-N-[(2-{5H,6H,7H,8H-imidazo[1,2-a]pyridin-7-ylmethoxy}pyridin-4-yl)methyl]isoquinoline-1,5-diamine]	> 40	3 to 10			> 40	> 40	> 40	> 40	10 to 40	> 40

Other lines, results leading:

IC50 (Plasma Kallikrein) [µM]	IC50 (Human Factor XIIa) [µM]	half-life [1] [h]	bioavailability [1] [%]	IC50 (FXIa) [µM]	IC50 (Trypsin) [µM]	IC50 (Plasmin) [µM]	IC50 (Thrombin) [µM]	IC50 (KLK1) [µM]	IC50 (FXa) [µM]	SMILES
10 to 40	0.1 to 0.3			> 40	> 40	> 40	10 to 40	3 to 10	10 to 40	Nc1ncc(Cl)c2cc(NCc3ccnc(OCC4CCn5ccnc5C4)c3)ccc12 (single isomer, unassigned) [Example 4438, (S*)-4-chloro-N6-((2-((5,6,7,8-tetrahydroimidazo[1,2-a]pyridin-7-yl)methoxy)pyridin-4-yl)methyl)isoquinoline-1,6-diamine]
3 to 10	0.01 to 0.1			10 to 40	10 to 40	> 40	> 40	3 to 10	3 to 10	Cc1cn2c(n1)CC(COc1cc(CNc3cccc4c(N)nccc34)ccn1)CC2 (single isomer, unassigned) [Example 4446, (S*)-N5-((2-((2-methyl-5,6,7,8-tetrahydroimidazo[1,2-a]pyridin-7-yl)methoxy)pyridin-4-yl)methyl)isoquinoline-1,5-diamine]
> 40	0.3 to 1			> 40	> 40	> 40	10 to 40	3 to 10	> 40	Nc1nccc2c(NCc3ccc(N4CCn5ccnc5C4)nc3)cccc12 [Example 1128, 5-N-[(6-{5H,6H,8H-imidazo[1,2-a]piperazin-7-yl}pyridin-3-yl)methyl]isoquinoline-1,5-diamine]
